Measurements from patent US20080194617A1, “Fused ring compound” (priority 2007, published 2008).
pEC50: −log10 of the molar value.

Target: T1, PPARγ-RXRα heterodimer (Homo sapiens, UniProt P37231)
T1 construct: expressed in transfected cells; host or cells: CHO-K1 (PPARγ:RXRα:4ERPP/CHO-K1)
T1 sequence (P37231 1-505): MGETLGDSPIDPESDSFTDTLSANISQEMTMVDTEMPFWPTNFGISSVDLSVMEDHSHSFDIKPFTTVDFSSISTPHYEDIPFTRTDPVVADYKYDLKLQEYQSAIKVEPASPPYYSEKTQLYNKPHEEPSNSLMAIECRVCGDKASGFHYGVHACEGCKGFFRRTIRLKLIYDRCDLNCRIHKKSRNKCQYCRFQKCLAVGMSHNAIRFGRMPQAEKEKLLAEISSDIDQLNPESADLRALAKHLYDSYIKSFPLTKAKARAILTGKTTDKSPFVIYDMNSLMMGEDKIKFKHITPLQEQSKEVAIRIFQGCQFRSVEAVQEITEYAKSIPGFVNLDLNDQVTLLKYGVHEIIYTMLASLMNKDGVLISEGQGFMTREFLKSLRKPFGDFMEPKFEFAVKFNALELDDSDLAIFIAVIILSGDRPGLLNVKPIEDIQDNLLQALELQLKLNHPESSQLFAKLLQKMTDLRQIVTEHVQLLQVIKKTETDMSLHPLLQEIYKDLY
T1 sequence (P19793 1-462 partner): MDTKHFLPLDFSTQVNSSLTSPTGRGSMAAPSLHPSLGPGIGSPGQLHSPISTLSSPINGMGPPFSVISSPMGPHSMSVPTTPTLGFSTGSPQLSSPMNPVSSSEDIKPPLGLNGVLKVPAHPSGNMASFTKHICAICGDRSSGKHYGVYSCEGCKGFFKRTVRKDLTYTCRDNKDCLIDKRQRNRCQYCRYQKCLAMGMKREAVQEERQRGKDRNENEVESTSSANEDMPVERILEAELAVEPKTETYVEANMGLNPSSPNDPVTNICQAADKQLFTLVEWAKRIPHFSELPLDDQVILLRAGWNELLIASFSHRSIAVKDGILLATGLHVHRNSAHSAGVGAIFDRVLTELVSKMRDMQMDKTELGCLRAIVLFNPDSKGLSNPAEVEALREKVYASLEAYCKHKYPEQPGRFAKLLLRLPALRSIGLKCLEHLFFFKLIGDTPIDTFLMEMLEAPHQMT
Assay: PPARγ-RXRα heterodimer ligand activity (luciferase reporter assay in PPARγ:RXRα:4ERPP/CHO-K1 cells)
Type: cell-based
Conditions: incubated one day with test compound, luciferase induction rate, compound concentration showing 50% of the maximum value of induction rate
Experimental: The PPARγ:RXRα:4ERPP/CHO-K1 cells described in WO03/099793 were cultured in a Ham F12 medium [manufactured by Life Technologies, Inc., US] containing 10% calf fetal serum [manufactured by Life Technologies, Inc., US], sown in a 96-well white plate [manufactured by Corning Coster Corporation, US] at 1×10^4 cells/well, and incubated overnight in a carbon dioxide gas incubator at 37° C.
Then, the medium was removed from the 96 well white plate, 45 μl of Ham F12 medium containing 0.1% fatty acid-free bovine serum albumin (BSA) and a test compound (5 μl) were added, and the cells were incubated for one day in a carbon dioxide gas incubator at 37° C. The medium was removed, 20 μl of PicaGene 7.5 (manufactured by Wako Pure Chemical Industries, Ltd.) 2-fold diluted with HBSS (HANKS' BALANCED SALT SOLUTION) [manufactured by BIO WHITTAKER, US] was added. After stirring, the luciferase activity was determined using the 1420 ARVO Multilabel Counter [manufactured by PerkinElmer, US].
The induction rate was calculated from the luciferase activity of each test compound based on the luciferase activity of the test compound non-administration group as 1. The test compound concentration and the induction rate were analyzed by PRISM [manufactured by GraphPad Software, Inc., US] to calculate EC50 value (compound concentration showing 50% of the maximum value of induction rate) of the test compound.

Row | SMILES | pEC50
1 | CCCCCS(=O)(=O)NC(=O)/C=C/c1c(C)nn(C)c1-n1ccc2ccc(C(F)(F)F)cc21 [Example 31, potassium ((2E)-3-{1,3-dimethyl-5-[6-(trifluoromethyl)-1H-indol-1-yl]-1H-pyrazol-4-yl}prop-2-enoyl)(pentylsulfonyl)azanide] | 8.26
2 | Cc1nn(C)c(-n2ccc3cc(Cl)ccc32)c1/C=C1\SC(=O)NC1=O [Example 84, (5Z)-5-{[5-(5-chloro-1H-indol-1-yl)-1,3-dimethyl-1H-pyrazol-4-yl]methylene}-1,3-thiazolidine-2,4-dione] | 6.66
3 | CCCCCNS(=O)(=O)NC(=O)/C=C/c1c(C)nn(C)c1-n1ccc2cc(Cl)ccc21 [Example 62, (2E)-3-[5-(5-chloro-1H-indol-1-yl)-1,3-dimethyl-1H-pyrazol-4-yl]-N-[(pentylamino)sulfonyl]acrylamide] | 7.43
4 | CCCCCS(=O)(=O)NC(=O)/C=C/c1c(C)nn(C)c1-n1ccc2ccccc21 [Example 7, potassium {(2E)-3-[5-(1H-indol-1-yl)-1,3-dimethyl-1H-pyrazol-4-yl]prop-2-enoyl}(pentylsulfonyl)azanide] | 7.41
5 | Cc1ccc(S(=O)(=O)NC(=O)/C=C/c2c(C)nn(C)c2-n2ccc3cccnc32)cc1 [Example 33, (2E)-3-[1,3-dimethyl-5-(1H-pyrrolo[2,3-b]pyridin-1-yl)-1H-pyrazol-4-yl]-N-[(4-methylphenyl)sulfonyl]acrylamide] | 7.06
6 | CCCCCS(=O)(=O)NC(=O)/C=C/c1c(C)nn(C)c1-c1cccc2cccnc12 [Example 24, (2E)-3-[1,3-dimethyl-5-(quinolin-8-yl)-1H-pyrazol-4-yl]-N-(pentylsulfonyl)acrylamide] | 7.27
7 | Cc1nn(C)c(-n2ccc3cc(Cl)ccc32)c1/C=C/C(=O)NS(=O)(=O)c1ccco1 [Example 55, (2E)-3-[5-(5-chloro-1H-indol-1-yl)-1,3-dimethyl-1H-pyrazol-4-yl]-N-(2-furylsulfonyl)acrylamide] | 7.36
8 | CCCCCS(=O)(=O)NC(=O)/C=C/c1c(C)nn(C)c1-c1csc2ccccc12 [Example 6, (2E)-3-[5-(1-benzothien-3-yl)-1,3-dimethyl-1H-pyrazol-4-yl]-N-(pentylsulfonyl)acrylamide] | 7.72
9 | CCCCCS(=O)(=O)NC(=O)CCc1c(C)nn(C)c1N1CCc2cccnc21 [Example 40, 3-[5-(2,3-dihydro-1H-pyrrolo[2,3-b]pyridin-1-yl)-1,3-dimethyl-1H-pyrazol-4-yl]-N-(pentylsulfonyl)propanamide] | 7.92
10 | CCCCNS(=O)(=O)NC(=O)/C=C/c1c(C)nn(C)c1-n1ccc2cc(Cl)ccc21 [Example 99, (2E)-N-[(butylamino)sulfonyl]-3-[5-(5-chloro-1H-indol-1-yl)-1,3-dimethyl-1H-pyrazol-4-yl]acrylamide] | 7.62

Other lines, results leading:

Row | pEC50 | SMILES
11 | 7.19 | CCCCCS(=O)(=O)NC(=O)/C=C/c1c(C)nn(C)c1-n1ccc2cccnc21 [Example 9, (2E)-3-[1,3-dimethyl-5-(1H-pyrrolo[2,3-b]pyridin-1-yl)-1H-pyrazol-4-yl]-N-(pentylsulfonyl)acrylamide]
12 | 7.49 | CCCCNC(=O)NS(=O)(=O)CCc1c(C)nn(C)c1-n1ccc2cc(C(F)(F)F)cnc21 [Example 294, N-[(butylamino)carbonyl]-2-{1,3-dimethyl-5-[5-(trifluoromethyl)-1H-pyrrolo[2,3-b]pyridin-1-yl]-1H-pyrazol-4-yl}ethanesulfonamide]
13 | 7.17 | CCCCCS(=O)(=O)NC(=O)NCCCc1c(C)nn(C)c1-n1ccc2cc(Cl)ccc21 [Example 82, N-[({3-[5-(5-chloro-1H-indol-1-yl)-1,3-dimethyl-1H-pyrazol-4-yl]propyl}amino)carbonyl]pentane-1-sulfonamide]
14 | 8.21 | CCCCCS(=O)(=O)NC(=O)/C=C/c1c(C)nn(C)c1-n1ccc2cc(Cl)ccc21 [Example 27, (2E)-3-[5-(5-chloro-1H-indol-1-yl)-1,3-dimethyl-1H-pyrazol-4-yl]-N-(pentylsulfonyl)acrylamide]
15 | 7.22 | CCCCNC(=O)NS(=O)(=O)CCc1c(C2CC2)nn(C)c1-n1ccc2cc(Cl)cnc21 [Example 279, N-[(butylamino)carbonyl]-2-[5-(5-chloro-1H-pyrrolo[2,3-b]pyridin-1-yl)-3-cyclopropyl-1-methyl-1H-pyrazol-4-yl]ethanesulfonamide]
16 | 7.59 | Cc1nn(C)c(-n2ccc3cc(Cl)cnc32)c1/C=C/C(=O)NS(=O)(=O)NCC1CC1 [Example 264, (2E)-3-[5-(5-chloro-1H-pyrrolo[2,3-b]pyridin-1-yl)-1,3-dimethyl-1H-pyrazol-4-yl]-N-{[(cyclopropylmethyl)amino]sulfonyl}acrylamide]
17 | 7.66 | CCCCOC(=O)NS(=O)(=O)CCc1c(C)nn(C)c1-n1ccc2cc(C(F)(F)F)cnc21 [Example 295, butyl [(2-{1,3-dimethyl-5-[5-(trifluoromethyl)-1H-pyrrolo[2,3-b]pyridin-1-yl]-1H-pyrazol-4-yl}ethyl)sulfonyl]carbamate]
18 | 7.82 | CCCCCS(=O)(=O)NC(=O)/C=C/c1c(C)nn(C)c1-n1ccc2cc(C)cnc21 [Example 232, (2E)-3-[1,3-dimethyl-5-(5-methyl-1H-pyrrolo[2,3-b]pyridin-1-yl)-1H-pyrazol-4-yl]-N-(pentylsulfonyl)acrylamide]
19 | 7.85 | CCCCS(=O)(=O)NC(=O)/C=C/c1c(C)nn(C)c1-n1ccc2cc(Cl)cnc21 [Example 283, (2E)-N-(butylsulfonyl)-3-[5-(5-chloro-1H-pyrrolo[2,3-b]pyridin-1-yl)-1,3-dimethyl-1H-pyrazol-4-yl]acrylamide]
20 | 7.07 | CCCCOC(=O)NS(=O)(=O)CCc1c(C(F)(F)F)nn(C)c1-n1ccc2cc(Cl)cnc21 [Example 197, butyl ({2-[5-(5-chloro-1H-pyrrolo[2,3-b]pyridin-1-yl)-1-methyl-3-(trifluoromethyl)-1H-pyrazol-4-yl]ethyl}sulfonyl)carbamate]
21 | 7.66 | CCCCCS(=O)(=O)NC(=O)OCCc1c(C)nn(C)c1-n1ccc2cc(Cl)ccc21 [Example 66, 2-[5-(5-chloro-1H-indol-1-yl)-1,3-dimethyl-1H-pyrazol-4-yl]ethyl (pentylsulfonyl)carbamate]
22 | 7.27 | Cc1nn(C)c(-n2ccc3cc(Cl)ccc32)c1CCS(=O)(=O)NC(=O)OCC1CC1 [Example 189, cyclopropylmethyl ({2-[5-(5-chloro-1H-indol-1-yl)-1,3-dimethyl-1H-pyrazol-4-yl]ethyl}sulfonyl)carbamate]
